Measured values taken from US8834841B2, “Imaging agents” (priority 2005, dated 2014).

Test system: MB468 breast carcinoma
Experiment: in vitro amino acid uptake, MDA MB 468 cells
Assay type: cell-based, human
Excerpt: The inventive compounds have been evaluated in vitro for tumor binding specificity (i.e. uptake cells) using a variety of tumor cell lines available in the art, along with reference compounds such as Me-AIB and BCH. Detailed description of these assays can be found in Martarello et al. (2002) Journal of Medicinal Chemistry, 45:2250-2259 and McConathy et al. (2003) Nuclear Medicine and Biology, 30:477-490. These, so called “amino acid uptake studies” are typically carried out with radiolabeled compounds in at least five phenotypically different human tumor cell lines (e.g. A549 lung carcinoma, MB468 breast carcinoma, DU145 prostate carcinoma, SKOV3 ovarian carcinoma, and U87 glial blastoma). These tumor cell lines can be grown either in vitro or in vivo with severe combined immunodeficiency (SCID) mice as a host. The fore-mentioned tumor cell lines are available at the Winship Cancer Institute of Emory University.
For the in vitro amino acid uptake studies, all cells can be grown to monolayer confluency in T-175 culture flasks [Corning, Corning, N.Y.] (approx. 1×10^8 cells/flask) in Dulbecco's Modified Eagle's Medium (DMEM) [Sigma, St. Louis, Mo.] in a humidified incubator (37° C., 5% CO2/95% air). Media are supplemented with 10% fetal calf serum [Hyclone, Logan, Utah], and antibiotics (10,000 U/ml penicillin and 10 mg/ml streptomycin) (Sigma, St. Louis, Mo.). For tissue culture passage, monolayer cells are detached by gentle trypsinization, resuspended in complete media, and split 1:10 into new T-flasks. […]
In the in vitro studies the uptake rate of each amino acid compound is measured in each tumor line, as well as the dominant transport mechanisms of each tumor cell line. After trypsinization, cells are resuspended in serum-free media, then counted on a hemocytometer, with viability assessed through Trypan blue staining. […] The vials are placed in a Cobra-II gamma counter (Packard, Meriden, Conn.), with the activity per cell number determined. […] Saline washes are performed as described above, and the filtered cells radioactivity determined on the gamma counter. […]

For `NC1(C(=O)O)CCC1[18F]` [Anti-R,S 2-[^18F]FACBC, (R,S) anti-1-amino-2-[^18F]fluorocyclobutyl-1-carboxylic acid], the “% Dose Uptake/0.5e6 Cells” value (MDA MB 468, No inhibitor) was 7.37 +/− 0.21 % Dose Uptake/0.5e6 Cells, the “% Dose Uptake/0.5e6 Cells” value (MDA MB 468, inhibitor BCH (10 mM)) was 1.67 +/− 0.36 % Dose Uptake/0.5e6 Cells and the “% Dose Uptake/0.5e6 Cells” value (MDA MB 468, inhibitor MeAlB (10 mM)) was 3.02 +/− 0.55 % Dose Uptake/0.5e6 Cells.
